Test results from patent US7745493B2, “Methods of treating tardive dyskinesia and other movement disorders” (priority 1998, dated 2010).
Marks after values point to notes of the source that are not given here.

What was measured:
[1] = test system: person one with long-standing TD; experiment: Case Report 2: two-sentence memory task; type: in vivo, human; conditions: Case 2; on acamprosate 666 mg three times daily plus memantine
Description: The patient was placed on a treatment regime that included administration of 666 mg of acamprosate, three times daily. In this case, acamprosate was added to the patient's regimen, which continued to include memantine. […] Despite past evidence from formal testing that the patient had impaired short-term memory, they performed normally on a two-sentence memory task, which involved testing the patient's recall ability using two sentences containing 13 separate details. On the two-sentence memory task, within three attempts the patient was able to recall 9 details and, using a multiple choice format, was able to recall a total of 11 details. Recall of 9 details on the third attempt would be normal for a middle-aged adult, let alone one […].

[2] = test system: person two with long-standing TD; experiment: Rey Auditory-Verbal Learning Test 15-items (Case 1); type: in vivo, human; conditions: ON drug
Description: On acamprosate, the patient was able to sustain concentration for prolonged periods. […] The patient's cognitive improvement was also assessed using formal neuropsychological measures. The patient was tested while on the drug, then taken off of the drug and tested two days later. On the drug, the patient was able to recall 13 of the 15 items after a short delay as well as 13 of the 15 items after a long delay, as measured by the Rey Auditory Verbal Learning Test. This was in comparison to the patient's ability while off the drug to recall only 7 of the 15 items after a short delay as well as 8 of the items after a long delay in tests performed. In addition, the patient was able to recognize all 15 of the items while on acamprosate but while off the drug (and while having been off of memantine for over 2 months) the patient could only recognize 10 of the items. The order of testing would give the advantage of familiarity to the off-drug condition. Nonetheless, the difference in favor of the on-drug condition was substantial.
(§1) The following tables report on the results of the neuropsychological tests (Drug I is memantine and Drug II is acamprosate): […]

[3] = test system: person two with long-standing TD; experiment: CPT with conditions (Vigilance) (Case 1); type: in vivo, human; conditions: ON drug
From the text: as §1

[4] = test system: person with simple tic of the neck; experiment: Case Report 5: frequency of simple tic of the neck; type: in vivo, human; conditions: Case 5
Description: A person had simple tic of the neck that involved forceful extension and rotation of the neck to the right. The tic had started in the context of therapy of depression with dextroamphetamine and pramipexole, a dopamine agonist drug. The tic occurred from 20-50 times per hour, with greater frequency when they were tired or under stress.
They were initially treated with 666 mg of acamprosate three times a day. Within 24 hours after the start of acamprosate therapy, the frequency and severity of the tic decreased dramatically, to a rate of less than 5 per hour. The patient often was free of tics completely for 2 to 3 hours after each dose of acamprosate, after which time the tic would very gradually return. The dose was then raised to 666 mg four times a day. On this dose, rates of more than 5 per hour occurred only under unusually stressful circumstances, and there were frequent tic-free periods of 4 hours or more. […] On a second day without acamprosate, the rate of tics was again over 20 per hour.
[…] then added chelated magnesium, at a dosage of 300 mg of elemental magnesium 3 times a day. With magnesium supplementation, the average tic frequency dropped to 6 hour or less. When 666 mg of acamprosate was given three times a day was given together with magnesium 300 mg three times a day, the usual tic-free period after each acamprosate dose increased from approximately 3 hours to approximately 5 hours.

[5] = in vivo; cited from earlier work
[6] = test system: patients with dyskinetic movements (TD, tics); experiment: Inventor's overall clinical experience, cases 1-6; type: in vivo, human
From the text: The ratio of acamprosate to magnesium can be varied to optimize the therapeutic synergy of the two ingredients. […] At typical therapeutic dosages of acetylhomotaurinate, the amount of magnesium is too low to have therapeutically-relevant effects on glutamate transmission. In my experience, I have had excellent therapeutic results from combining a 2 gram daily dosage of acamprosate with 1 gram of elemental magnesium, given as a salt or chelate. […] Allowing for variations in individual response, and variations in the intestinal absorption of both acamprosate and magnesium, I assert that the optimal ratio of mg:acetylhomotaurinate for an individual patient will be somewhere between 1:6 and 1:1. […] Although magnesium N-acetylhomotaurinate may be slightly more efficacious than calcium N-acetylhomotaurinate for treatment of tic disorders, in the present application we are effectively increasing the magnesium content of acamprosate and related compounds by administering magnesium ion (as a salt or chelate) in combination with a salt of N-acetylhomotaurinate, because there is a significant benefit to administering a higher ratio of magnesium to acamprosate than is present in the magnesium salt of acamprosate.
Relief of symptoms began within 48 hours of administration of acamprosate, and, if a patient discontinued acamprosate, symptoms returned immediately. […]

[7] = test system: person two with long-standing TD; experiment: Finger Tapping (Case 1); type: in vivo, human; conditions: ON drug, higher score better
From the text: as §1

[8] = test system: person two with long-standing TD; experiment: Grip Strength (Case 1); type: in vivo, human; conditions: ON drug, higher score better
From the text: as §1

[9] = test system: person two with long-standing TD; experiment: Figural Fluency (Case 1); type: in vivo, human; conditions: ON drug
From the text: as §1

[10] = test system: person two with long-standing TD; experiment: Digit Symbol (Case 1); type: in vivo, human; conditions: ON drug, higher score better
From the text: as §1

[11] = test system: person two with long-standing TD; experiment: Verbal Fluency (Case 1); type: in vivo, human; conditions: ON drug
From the text: as §1

[12] = of 15 items, higher score better

In the case of `CC(=O)NCCCS(=O)(=O)O` [acamprosate, calcium N-acetylhomotaurinate], the “details recalled within three attempts (of 13 details)” value [1] is reported as 9, the “total details recalled using multiple choice format (of 13 details)” value [1] is reported as 11 and the “RAVLT List A Trial 1” value ([2]; higher score better) is reported as 10. The “RAVLT List A Trial 5” value ([2]; higher score better) was 14, the “RAVLT List B” value ([2]; higher score better) was 8 and the “Rey Auditory Verbal Learning Test List A 1-5 total (75 max)” value ([2]; higher score better) was 63. The “RAVLT False Positive” value ([2]; lower score better) was 1, the “RAVLT Intrusions” value ([2]; lower score better) was 0 and the “RAVLT Perseverations” value ([2]; lower score better) was 5. The “RAVLT Long-Delay Free Recall” value [2, 12] was 13, the “RAVLT Recognition Hits” value [2, 12] was 15 and the “RAVLT Short-Delay Free Recall” value [2, 12] was 13. The “CPT Correct” value ([3]; higher score better) was 100/100, the “CPT Commission errors” value ([3]; lower score better) was 0 and the “CPT Omission errors” value ([3]; lower score better) was 0. For the same compound, the “CPT Wrong” value ([3]; lower score better) was 3, the tic-free periods ([4]; 666 mg four times a day) was ≥ 4 h and the tic rate ([4]; 666 mg three times a day) was “less than 5 per hour”. The “time to decrease of tic frequency and severity” value ([4]; after start of therapy) was ≤ 24 h, the “absorption from the GI tract” value [5] was “irregularly absorbed” and the “time to beginning of relief of symptoms” value [6] was ≤ 48 h.

With `CC12CC3CC(C)(C1)CC(N)(C3)C2` [memantine] the “Finger Tapping DH” value [7] was “DH = 59.3”, the “Finger Tapping NDH” value [7] was “NDH = 48.5” and the “Grip Strength DH” value [8] was “DH = 17.7”. For the same compound, the “Grip Strength NDH” value [8] was “NDH = 21.7”, the “Figural Fluency Unique Designs” value ([9]; higher score better) was 124 and the “Figural Fluency Perseverations” value ([9]; lower score better) was 8. For the same compound, the “Digit Symbol” value [10] was 34, the “Verbal Fluency Category (Animals) Per” value [11] was “Per = 0^b” and the “Verbal Fluency Letter (CFL) Per” value [11] was “Per = 2^b”. The “Verbal Fluency Category (Animals) Total” value ([11]; higher score better) was “Total = 25” and the “Verbal Fluency Letter (CFL) Total” value ([11]; higher score better) was “Total = 70”.
